Here are results for 47 molecules from ChEMBL document CHEMBL4513160, “CO-ADD screening of MMV (CH) - Small Polar Library”.

Each structure is given as a SMILES string. Converted amounts (≈) assume the structure as drawn.

Test [1] relates to Pseudomonas aeruginosa. The test can be described thus: Antibacterial activity against Pseudomonas aeruginosa PAO397 [PAO1 d(mexAB-oprM) d(mexCD-oprJ) d(mexEF-oprN) d(mexJKL) d(mexXY) d(opmH)] (CO-ADD:GN_211); MIC in CAMBH media using NBS plates, by OD(600). Format: functional. The settings on record: ASSAY_TEST Inhibition of Bacterial Growth, detection method Absorption (OD600), MEDIA CAMHB, plate type 384well, CORNING #3640, time 18 hr.

Test [2] concerns Pseudomonas aeruginosa. Kind of test: microbe, parasite or virus in culture. The note with it: ATCC 27853, 18 h, ASSAY_TEST Inhibition of Bacterial Growth, detection method Absorption (OD600), MEDIA CAMHB, plate type 384well, NBS, CORNING #3640.
Description: Antibacterial activity against Pseudomonas aeruginosa ATCC 27853 (CO-ADD:GN_042); MIC in CAMBH media using NBS plates, by OD(600)
The test system of another test is Acinetobacter baumannii. Kind of test: microbe, parasite or virus in culture. The note with it: ATCC 19606, 18 h, ASSAY_TEST Inhibition of Bacterial Growth, detection method Absorption (OD600), MEDIA CAMHB, plate type 384well, NBS, CORNING #3640.

Description for Acinetobacter baumannii: Antibacterial activity against Acinetobacter baumannii ATCC 19606 (CO-ADD:GN_034); MIC in CAMBH media using NBS plates, by OD600

As to `N#Cc1cc(N2CCC[C@@H]2CO)nc2ccccc12`, the MIC against Pseudomonas aeruginosa [1], with Pseudomonas aeruginosa [2] and against Acinetobacter baumannii was above 300 µM throughout.
In the case of `CN1CCCN(c2nc3ccccc3cc2CO)CC1`, the MIC against Pseudomonas aeruginosa [1], in the test with Pseudomonas aeruginosa [2] and in the test on Acinetobacter baumannii was above 300 µM each time.
On to `C[C@@H](N)C(=O)NCc1cc2cc(Cl)ccc2[nH]1`, for which the MIC was 300 µM (≈ 75.5 µg/mL) with Pseudomonas aeruginosa [1], above 300 µM against Pseudomonas aeruginosa [2] and above 300 µM against Acinetobacter baumannii.
For the molecule `CC(CN)N(C)C(=O)Cc1cccc2ccccc12` (stereo not given), the MIC with Pseudomonas aeruginosa [2] and against Acinetobacter baumannii was above 300 µM in each case.
In the case of `O=C(NCc1cccs1)c1cnsn1`, the MIC in the test on Pseudomonas aeruginosa [1], in the test on Pseudomonas aeruginosa [2] and in the test with Acinetobacter baumannii was above 300 µM in each case.
In the case of `NCCNC(=O)c1ccc(-c2ccc(Cl)cc2)s1`, the MIC is 90 µM (≈ 25.3 µg/mL) with Pseudomonas aeruginosa [1], 300 µM (≈ 84.2 µg/mL) against Pseudomonas aeruginosa [2] and above 300 µM in the test with Acinetobacter baumannii.
As for `CCOc1cc(Cl)ccc1CN`, the MIC in the test on Pseudomonas aeruginosa [1], in the test with Pseudomonas aeruginosa [2] and in the test on Acinetobacter baumannii was above 300 µM each time.
Turning to `N#Cc1ncn(CC(=O)c2ccc3c(c2)CCO3)n1`, the MIC in the test on Pseudomonas aeruginosa [1], against Pseudomonas aeruginosa [2] and against Acinetobacter baumannii was above 300 µM each time.
Turning to `CC(C)(N)CN1CCN(c2cccc(Cl)c2)CC1`, the MIC in the test on Pseudomonas aeruginosa [1], in the test with Pseudomonas aeruginosa [2] and against Acinetobacter baumannii was above 300 µM each time.
Take `COc1ccc(-c2ccnc(CO)c2)c(OC)c1`: the MIC in the test with Pseudomonas aeruginosa [1], with Pseudomonas aeruginosa [2] and against Acinetobacter baumannii was above 300 µM each time.
As for `OC1(CNCc2ccc(Br)c3cccnc23)CCOC1` (stereo not given), the MIC against Pseudomonas aeruginosa [1], with Pseudomonas aeruginosa [2] and against Acinetobacter baumannii was above 300 µM each time.
`NCc1cnn(-c2cccc(Cl)c2)c1`: the MIC against Pseudomonas aeruginosa [1], against Pseudomonas aeruginosa [2] and against Acinetobacter baumannii was above 300 µM throughout.
Turning to `CC(C)c1ccoc1C(=O)N(C)c1cc(C#N)ccn1`, the MIC in the test on Pseudomonas aeruginosa [1], with Pseudomonas aeruginosa [2] and in the test with Acinetobacter baumannii was above 300 µM each time.
As for `CCNCCOc1cccc(OCC)c1`, the MIC with Pseudomonas aeruginosa [1], with Pseudomonas aeruginosa [2] and with Acinetobacter baumannii was above 300 µM throughout.
Consider `CNC(CO)c1cccc(Cl)c1Cl` (stereo not given), for which the MIC against Pseudomonas aeruginosa [1], against Pseudomonas aeruginosa [2] and in the test on Acinetobacter baumannii was above 300 µM in each case.
Turning to `Cc1ccc(C(=O)NCc2ccnc(N(C)C)c2)s1`, the MIC against Pseudomonas aeruginosa [1], in the test on Pseudomonas aeruginosa [2] and in the test on Acinetobacter baumannii was above 300 µM in each case.
In the case of `CCOc1ncc(C(=O)NCC(C)(O)C(C)C)cc1Cl` (stereo not given), the MIC with Pseudomonas aeruginosa [1], in the test on Pseudomonas aeruginosa [2] and against Acinetobacter baumannii was above 300 µM throughout.
Consider `CNC(=O)C1CCN(C(=O)Nc2ccc(C)c(Cl)c2)C1` (stereo not given), for which the results for the MIC with Pseudomonas aeruginosa [1], in the test on Pseudomonas aeruginosa [2] and against Acinetobacter baumannii were 90 µM (≈ 26.6 µg/mL), above 300 µM and above 300 µM, respectively.
Consider `OCC1(O)CCCN(c2ccnc3ccc(Cl)cc23)C1` (stereo not given), for which the MIC with Pseudomonas aeruginosa [1], in the test with Pseudomonas aeruginosa [2] and in the test on Acinetobacter baumannii was above 300 µM throughout.
As to `OCc1ccncc1NCc1coc2ccccc12`, the MIC in the test with Pseudomonas aeruginosa [1], against Pseudomonas aeruginosa [2] and against Acinetobacter baumannii was above 300 µM throughout.
Turning to `O=S1(=O)CCC(CNc2ccnc3ccc(Cl)cc23)C1` (stereo not given), the MIC in the test with Pseudomonas aeruginosa [1], against Pseudomonas aeruginosa [2] and against Acinetobacter baumannii was above 300 µM each time.
`NCC(=O)N1CCCC(CCc2ccc(F)cc2)C1` (stereo not given): the MIC in the test on Pseudomonas aeruginosa [1], with Pseudomonas aeruginosa [2] and against Acinetobacter baumannii was above 300 µM each time.
Turning to `COc1cccc(-c2ncc(CN)s2)c1`, the MIC against Pseudomonas aeruginosa [1], with Pseudomonas aeruginosa [2] and against Acinetobacter baumannii was above 300 µM throughout.
With `NS(=O)(=O)NCCCc1ccc(Br)cc1F`, the MIC with Pseudomonas aeruginosa [1], with Pseudomonas aeruginosa [2] and against Acinetobacter baumannii was above 300 µM each time.
Turning to `NCC(=O)N(Cc1cccs1)Cc1cccs1`, the MIC in the test on Pseudomonas aeruginosa [1], against Pseudomonas aeruginosa [2] and against Acinetobacter baumannii was above 300 µM each time.
Regarding `COc1ccc(NC(=O)c2ccc(S(N)(=O)=O)o2)cc1`, the MIC is 200 µM (≈ 59.3 µg/mL) with Pseudomonas aeruginosa [1], above 300 µM against Pseudomonas aeruginosa [2] and above 300 µM against Acinetobacter baumannii.
Take `COc1ccc2c(c1)CCCC(=O)N2`: the MIC against Pseudomonas aeruginosa [1], with Pseudomonas aeruginosa [2] and with Acinetobacter baumannii was above 300 µM throughout.
In the case of `CCc1nnc(NC(=O)c2cc(OC)ccn2)s1`, the MIC in the test with Pseudomonas aeruginosa [1], in the test with Pseudomonas aeruginosa [2] and in the test with Acinetobacter baumannii was above 300 µM each time.
`CN(Cc1ccc(Cl)cc1)C(=O)C1CCNC1` (stereo not given): the MIC with Pseudomonas aeruginosa [1], against Pseudomonas aeruginosa [2] and against Acinetobacter baumannii was above 300 µM throughout.
As for `CC(Nc1ccc(C#N)cn1)c1ccc2c(c1)OCO2` (stereo not given), the MIC in the test on Pseudomonas aeruginosa [1], in the test with Pseudomonas aeruginosa [2] and against Acinetobacter baumannii was above 300 µM each time.
As to `NCCC(=O)N1CCCC(CCc2ccc(F)cc2)C1` (stereo not given), the MIC in the test with Pseudomonas aeruginosa [1], against Pseudomonas aeruginosa [2] and against Acinetobacter baumannii was above 300 µM throughout.
Turning to `CCCOc1ccccc1C(=O)NC1CCNC1` (stereo not given), the MIC in the test on Pseudomonas aeruginosa [1] was 25 µM (≈ 6.21 µg/mL); with Pseudomonas aeruginosa [2], above 300 µM; against Acinetobacter baumannii, above 300 µM.
Take `O=C(Nc1ccnc(CO)c1)c1ccc(F)cc1I`: the MIC against Pseudomonas aeruginosa [1], in the test with Pseudomonas aeruginosa [2] and in the test on Acinetobacter baumannii was above 300 µM each time.
As to `CCCc1cc(C(=O)NCCc2nc(C)c[nH]2)[nH]n1`, the results for the MIC against Pseudomonas aeruginosa [1], in the test with Pseudomonas aeruginosa [2] and in the test with Acinetobacter baumannii were 300 µM (≈ 78.4 µg/mL), above 300 µM and above 300 µM, respectively.
Consider `NCC1CCOc2ccccc21` (stereo not given), for which the MIC against Pseudomonas aeruginosa [1], in the test on Pseudomonas aeruginosa [2] and in the test with Acinetobacter baumannii was above 300 µM throughout.
For `COCC(C)NCc1ccccc1CN1CCCC1=O` (stereo not given), the MIC with Pseudomonas aeruginosa [1], in the test with Pseudomonas aeruginosa [2] and in the test with Acinetobacter baumannii was above 300 µM in each case.
Regarding `NC(=O)C1CCN(c2ccnc3cc(Br)ccc23)C1` (stereo not given), the MIC with Pseudomonas aeruginosa [1], against Pseudomonas aeruginosa [2] and against Acinetobacter baumannii was above 300 µM each time.
As for `CN(CCOc1ccc(Cl)cc1)C(=O)C(C)(C)CN`, the MIC in the test on Pseudomonas aeruginosa [1], against Pseudomonas aeruginosa [2] and against Acinetobacter baumannii was above 300 µM in each case.
As to `NCC(=O)N1CCCC(CCc2ccc(F)cc2F)C1` (stereo not given), the MIC against Pseudomonas aeruginosa [1], against Pseudomonas aeruginosa [2] and against Acinetobacter baumannii was above 300 µM in each case.
Regarding `Cc1cc(Br)cc(C(=O)NCc2nccc(N)n2)c1`, the MIC with Pseudomonas aeruginosa [1], with Pseudomonas aeruginosa [2] and against Acinetobacter baumannii was above 300 µM each time.
With `OCCCNc1ccnc2ccc(Cl)cc12`, the MIC with Pseudomonas aeruginosa [1], against Pseudomonas aeruginosa [2] and in the test with Acinetobacter baumannii was above 300 µM each time.
On to `NC1CCN(c2ccccc2F)CC1`, for which the MIC in the test with Pseudomonas aeruginosa [1], in the test with Pseudomonas aeruginosa [2] and with Acinetobacter baumannii was above 300 µM each time.
With `O=C1C=CC(=O)N1Cc1ccc(Cl)cc1`, the MIC against Pseudomonas aeruginosa [1], in the test on Pseudomonas aeruginosa [2] and in the test on Acinetobacter baumannii was above 300 µM throughout.
As to `Cn1cc(CC(=O)Nc2ccc(I)cn2)cn1`, the MIC with Pseudomonas aeruginosa [1], in the test with Pseudomonas aeruginosa [2] and against Acinetobacter baumannii was above 300 µM each time.
With `O=C(Nc1ccncc1)c1coc(Br)c1`, the MIC against Pseudomonas aeruginosa [1], against Pseudomonas aeruginosa [2] and in the test on Acinetobacter baumannii was above 300 µM throughout.
Take `c1cc(CNc2ncnc3[nH]ncc23)c2c(c1)OCO2`: the MIC in the test with Pseudomonas aeruginosa [1], with Pseudomonas aeruginosa [2] and against Acinetobacter baumannii was above 300 µM throughout.
On to `Brc1ccc2c(c1)OCCNC2`, for which the MIC against Pseudomonas aeruginosa [1], in the test on Pseudomonas aeruginosa [2] and against Acinetobacter baumannii was above 300 µM each time.
